Experimental data: patent US12599599B2, “Anti-inflammatory, anti-cancer, and anti-angiogenic compounds, pharmaceutical compositions, and methods of making and using thereof” (MEDICON PHARMACEUTICALS, INC., priority 2017, dated 2026)

Tests used:
SKOV-3 ovarian cancer = assay: 24 hr growth inhibition of cell line; format: cell-based; conditions: Homo sapiens, SK-OV-3, 24 h
Description: The therapeutic efficacy of compounds 2, 5, and 6 was assessed in human and murine cell lines of varied tissue origin, and their 24 hr 50% inhibitory concentration was determined by following standard methodologies. Typical results are shown in the Table 5, indicating a broad anticancer effect.
Ovarian cancer cells were studied in greater detail using the following ovarian cancer cell lines: SKOV-3, OVCAR3, A2780 (and two cell lines derived from it, A2870cis that is resistant to cisplatin, and A2870ADR that is resistant to doxorubicin (Adriamycin)), and HEY (sensitive to paclitaxel (Taxol), and its derivative HEY-T30 that is Taxol-resistant). […]

A2780 xenografts = assay: Subcutaneous xenografts in nude mice, platinum sensitive; format: in vivo; conditions: compound 5 15 mg/kg/day six days a week ip; cis-platinum 5.5 mg/kg one time a week ip
Description: To determine whether compound 5 is efficacious against chemotherapy-resistant ovarian cancer, three pairs of sensitive and resistant human ovarian cancer cell lines were grown as subcutaneous xenografts in nude mice and treated as summarized in FIG. 10. These cell lines were: A2780, sensitive to both cis-platinum and Adriamycin (doxorubicin); A2780cis, resistant to cis-platinum; A2780ADR, resistant to Adriamycin: HEY, sensitive to Taxol; HEY-T30, resistant to Taxol. The treatments administered were: vehicle control; compound 5, 15 mg/kg/day six days a week, ip; cis-platinum 5.5 mg/kg, one time a week ip; Adriamycin 3 mg/kg twice a week ip; and Taxol 20 mg/kg twice a week ip.

[1] = tested on: MIA PaCa2 human pancreatic cancer cells; assay: In vitro synergy with tamoxifen; format: cell-based; conditions: tamoxifen prior to or concurrently with compound 5
Excerpt: Additionally, synergy has been documented between compounds 5 and 6 individually and several chemotherapeutic and other agents, including but not limited to various camptothecins (e.g., camptothecin 11), resveratrol, gemcitabine, docetaxel, curcumin, progesterone, and methotrexate. Such synergy concerned the ability of these combinations to markedly suppress the growth of various human cancer cell lines originating in the pancreas, lung and other tissues. Furthermore, extremely efficacious was the combination of compounds 5, 6 and tamoxifen in completely suppressing the growth of K-ras mutant human pancreatic cancer cell lines.

[2] = tested on: SKOV-3 human ovarian cancer cells; assay: Acridine orange staining by flow cytometry (autophagy); format: cell-based; conditions: after treatment; 4% before
Description: (§1) FIGS. 12A-12C and FIGS. 13A-13C illustrate key findings related to the mechanism of action of compound 5 against ovarian cancer. The studies shown here were performed in SKOV-3 human ovarian cancer cells. FIG. 12A: Left: Compound 5 increases the percentage of cells with acridine orange staining determined by flow cytometry (4% 4→38% after treatment with compound 5) and indicating the induction of autophagy. Right: Electron micrographs show morphological features of cells undergoing autophagy. Yellow arrowheads: vacuoles; white arrowheads: autophagosomes. […] N: nucleus; ER: endoplasmic reticulum with visible ribosomes. The left micrograph shown normal ER (circled) in a vehicle-treated cell. […] The latter finding is diagnostic of ER stress. Magnification: 6,800×. FIG. 12C: Compound 5 suppresses STAT3, mTOR and JNK activation by phosphorylation, as well as the levels of COT.

[3] = tested on: SKOV-3 human ovarian cancer cells; assay: Transmission electron microscopy, ER stress; format: cell-based; conditions: 1.5×IC50
Description: as §1

JNK = assay: Activation by phosphorylation in SKOV-3 cells; format: cell-based, human
Description: as §1

STAT3 = assay: Activation by phosphorylation in SKOV-3 cells; format: cell-based, human
Description: as §1

mTOR = assay: Activation by phosphorylation in SKOV-3 cells; format: cell-based, human
Description: as §1

COT = assay: Protein levels in SKOV-3 cells; format: cell-based, human
Description: as §1

GCN2 = assay: Activation by phosphorylation in SKOV-3 cells; format: cell-based, human; conditions: 1.5×IC50
Excerpt: (§2) FIG. 13A: Compound 5 induces the phosphorylation of eIF2α, confirming integrated stress response. p-eIF2αinduces ATF4 that suppresses 5′-cap dependent translation initiation, shown below. […] The levels of reporter proteins used in the translation assay (Pierce™ Renilla-Firefly Luciferase Dual Assay Kit; Thermo Scientific, Grand Island, NY) were normalized to the levels of intracellular FLUC-RLUC transcripts and are shown as percent of untreated control cells. RLU=Relative light units. 5′-cap dependent translation initiation was much less and occurred later. Values: Mean±SEM; *, p<0.05 and **, p<0.01 vs. control. […] Loading controls: β-actin and GADPH.

PERK = assay: Activation by phosphorylation in SKOV-3 cells; format: cell-based, human; conditions: 1.5×IC50
Excerpt: as §2

VEGF-B = assay: Secreted VEGF in culture medium by ELISA; format: cell-based, human
Description: The effect of compounds 2, 5, and 6 on VEGF production was examined. For example, SKOV-3 ovarian cancer cells grown in culture were treated with compound 5 1×IC50 for up to 24 h. Secreted VEGF was assayed in the culture medium by ELISA (R&D Systems). […] For example, at 24 h, the reduction of secreted VEGF-A over the corresponding controls was: OVCAR3=100%, A2780=86%, A2780cis=100%, and A2780ADR=100%. Compound 5 suppressed VEGF-B by 90-92% compared to control. The anti-VEFG effect of Compound 5 is as strong in the drug-resistant as in the drug-sensitive cell lines.

[4] = tested on: Ras palmitoylation in A2780 and A2780cis ovarian cancer cells; assay: Ras palmitoylation (resin capture, immunoblot); format: cell-based, human
Description: FIGS. 18A-18B illustrate the effect of compounds 5 and 6 on K-Ras. FIG. 18A: Compound 6 suppressed of K-Ras activation. Cells with mutant K-Ras were treated with compound 6 1.5×IC50 for the respective time periods. K-Ras activity was determined by Ras pull-down (Thermo Scientific; following vendor instructions). K-Ras activation is suppressed 37% at 1 hr and 88% at 2 hrs compared to respective controls. FIG. 18B: Compound 5 suppressed the palmitoylation of Ras in A2780 and A2780cis (resistant to cisplatin) ovarian cancer cells. Palmitoylation is detected by removing S-palmitate groups from proteins, creating new free thiols (where the palmitic acid group used to be) and capturing the previously S-palmitoylated proteins on a resin, using a commercial kit (Badrilla, Leeds, UK). Ras was detected in the eluate by immunoblot.
This effect may be particularly useful in types of cancer characterized by K-Ras mutation such as, for example, pancreatic, lung and ovarian cancer. FIG. 18A illustrates the inhibition of K-Ras activation by compound 6. […] This property of compound 5 is not shared for example by compound 6 or phosphosulindac.

[5] = tested on: chicken embryo chorioallantoic membrane; assay: Chicken embryo chorioallantoic membrane assay; format: in vivo

**Q.** Which results are given for CCN(CC)CCCCNC(=O)c1ccccc1SC/C=C(\C)CC/C=C(\C)CCC=C(C)C [Compound 5]?
**A.** IC50 (SKOV-3 ovarian cancer): 9 µM; growth of platinum-sensitive xenografts (A2780 xenografts): suppressed the growth; synergy with tamoxifen on growth of MIA PaCa2 cells [1]: synergizes; percentage of cells with acridine orange staining [2]: 38%; endoplasmic reticulum (ER) stress [3]: induction of endoplasmic reticulum (ER) stress; JNK activation by phosphorylation (JNK): suppresses; STAT3 activation by phosphorylation (STAT3): suppresses; mTOR activation by phosphorylation (mTOR): suppresses; levels of COT (COT): suppresses; GCN2 activation by phosphorylation (GCN2): activated by phosphorylation; PERK activation by phosphorylation (PERK): activated by phosphorylation; suppression of VEGF-B compared to control (VEGF-B): 90-92%; suppression of palmitoylation of Ras [4]: suppressed; new vessels after treatment ([5]; control 58±4.9 (compound 5), 42.6±8.2 (compound 6)): 46±2.1; reduction of formation of new vessels ([5]; in vivo): 21%
